According to paper PMC10460844, “Real‐Time Monitoring of Multitarget Antimicrobial Mechanisms of Peptoids Using Label‐Free Imaging with Optical Diffraction Tomography” (Advanced Science, 2023):
Square brackets hold non-standard residues; d marks the D form. Peptide text beside a SMILES is read from it. Gly(N(CH2)2(3-indolyl)) = O=C(O)CNCCc1c[nH]c2ccccc12; Nspe = C[C@H](NCC(=O)O)c1ccccc1; Nphe = O=C(O)CNCc1ccccc1; Nlys = NCCCCNCC(=O)O

How the values were obtained:
[1] = system: rat erythrocytes; assay: Hemolysis assay; assay type: cell-based; details: for HC10 / HC50: pH 7.4
Experimental: The hemolysis assay was performed using rat erythrocytes in phosphate‐buffered saline (PBS), as reported by Mendes et al.^[ [45] ^] Animal studies were approved by the Laboratory Animal Resource Center of Gwangju Institute of Science and Technology. Blood was collected from a 13‐week‐old male Sprague‐Dawley rat in tubes containing 158 USP units of sodium heparin to prevent coagulation and centrifuged at 1000 rpm for 10 min at 4 °C. Plasma was removed carefully and erythrocyte pellets were washed three times with PBS (35 mM phosphate, pH 7.4, 150 mM NaCl). Next, 150 µL of a 10% erythrocyte suspension was mixed with 50 µL of serially diluted peptoids (0–100 µM) in a 96‐well black polypropylene plates (Greiner, Kremsmünster, Austria). Untreated erythrocytes and cells lysed by the addition of 1% Triton X‐100 were used as negative and positive controls, respectively, with the 1% Triton X‐100‐treated wells being accepted to represent 100% hemolysis. The reaction mixture was incubated at 37 °C for 60 min, and the plates were centrifuged at 1000 rpm for 15 min. Aliquots (150 µL) of the supernatant were transferred to fresh 96‐well plates, and the absorbance of each well was measured at 540 nm using a microplate reader. Hemolysis induced by peptoids was calculated as the percentage value of Triton X‐100 lysed cells. The percentage of hemolysis by the extracts was calculated according to the following formula: % hemolysis = [(Abs 540 nm in the peptoid solution – Abs 540 nm in PBS) / (Abs 540 nm in 1% Triton X‐100 – Abs 540 nm in PBS)] × 100. HC10 and HC50 were defined as the peptoid concentrations that caused 10% and 50% hemolysis in rat erythrocytes, respectively. H max indicates the percentage of hemolysis observed at the maximum peptoid concentration, 100 µM throughout this study.

[2] = Analytical reversed-phase HPLC elution (hydrophobicity); assay type: physicochemical; details: Table S1; analytical RP-HPLC, SunFire C18, water/ACN + 0.1% TFA, 5 to 100% B linear over 30 min, 1 mL/min, UV 220 nm; approximate comparison of hydrophobicity
Experimental: 7. HPLC chromatogram, retention time (tR), and LC-MS data
HPLC analysis of peptoids was conducted using a Waters HPLC system equipped with a Waters 2489 UV/Visible Detector, 1525 Binary HPLC Pump, 2707 Autosampler, 5CH column oven, and a C18 column (SunFire C18, 4.6 × 250 mm, 5 μm; Waters Corp., Milford, MA, USA). The mobile phases were deionized water (A, with + 0.1% TFA) and acetonitrile (ACN; B, with + 0.1% TFA). Before sample injection, the column was conditioned with 5% B for 10 min. Then, the mobile phase was maintained at 5% B for 2 min, followed by increasing B to 100% using a linear gradient over 30 min. At this point, 100% B was maintained for 5 additional min. The flow rate of the mobile phase was 1 mL/min. The sample was detected by measuring absorbance at 220 nm. […]

Row | SMILES | HPLC elution [2] | Hmax (100 µM) [1] | HC10 [1] | HC50 [1]
1 | C[C@H](NCC(=O)N(CCCCN)CC(=O)N(CC(=O)N(CC(=O)N(CCCCN)CC(=O)N(CC(=O)N(CC(=O)N(CCCCN)CC(=O)N(CC(=O)N(CC(=O)N(CCCCN)CC(=O)N(CC(N)=O)[C@@H](C)c1ccccc1)[C@@H](C)c1ccccc1)[C@@H](C)c1ccccc1)[C@@H](C)c1ccccc1)[C@@H](C)c1ccccc1)[C@@H](C)c1ccccc1)[C@@H](C)c1ccccc1)c1ccccc1 [peptoid 48] (H-[Nspe][Nlys][Nspe][Nspe][Nlys][Nspe][Nspe][Nlys][Nspe][Nspe][Nlys][Nspe]-NH2) | 53.4 % MeCN | 79.9±3.6% | 25.7 µM | 48.4 µM
2 | C[C@@H](c1ccccc1)N(CC(=O)N(CCc1c[nH]c2ccccc12)CC(=O)N(CCCCN)CC(=O)N(CC(=O)N(CCc1c[nH]c2ccccc12)CC(=O)N(CCCCN)CC(=O)N(CC(=O)N(CCc1c[nH]c2ccccc12)CC(=O)N(CCCCN)CC(=O)N(CC(=O)N(CCc1c[nH]c2ccccc12)CC(N)=O)[C@@H](C)c1ccccc1)[C@@H](C)c1ccccc1)[C@@H](C)c1ccccc1)C(=O)CNCCCCN [peptoid 22] (H-[Nlys][Nspe][Gly(N(CH2)2(3-indolyl))][Nlys][Nspe][Gly(N(CH2)2(3-indolyl))][Nlys][Nspe][Gly(N(CH2)2(3-indolyl))][Nlys][Nspe][Gly(N(CH2)2(3-indolyl))]-NH2) | 54.1 % MeCN | 108.6±1.1% | 6.9 µM | 19.4 µM
3 | C[C@@H](c1ccccc1)N(CC(N)=O)C(=O)CN(C(=O)CN(CCCCN)C(=O)CN(C(=O)CN(CCCCN)C(=O)CN(CCCCN)C(=O)CN(CCc1c[nH]c2ccccc12)C(=O)CN(C(=O)CN(CCCCN)C(=O)CN(C(=O)CN(C(=O)CNCCCCN)[C@@H](C)c1ccccc1)[C@@H](C)c1ccccc1)[C@@H](C)c1ccccc1)[C@@H](C)c1ccccc1)[C@@H](C)c1ccccc1 [peptoid 25] | 50.8 % MeCN | 2.7±0.4% | > 100 µM | > 100 µM
4 | NCCCCNCC(=O)N(CCc1c[nH]c2ccccc12)CC(=O)N(CCc1c[nH]c2ccccc12)CC(=O)N(CCCCN)CC(=O)N(CCc1c[nH]c2ccccc12)CC(=O)N(CCc1c[nH]c2ccccc12)CC(=O)N(CCCCN)CC(=O)N(CCc1c[nH]c2ccccc12)CC(=O)N(CCc1c[nH]c2ccccc12)CC(=O)N(CCCCN)CC(=O)N(CCc1c[nH]c2ccccc12)CC(=O)N(CCc1c[nH]c2ccccc12)CC(N)=O [peptoid 23] (H-[Nlys][Gly(N(CH2)2(3-indolyl))][Gly(N(CH2)2(3-indolyl))][Nlys][Gly(N(CH2)2(3-indolyl))][Gly(N(CH2)2(3-indolyl))][Nlys][Gly(N(CH2)2(3-indolyl))][Gly(N(CH2)2(3-indolyl))][Nlys][Gly(N(CH2)2(3-indolyl))][Gly(N(CH2)2(3-indolyl))]-NH2) | 53.0 % MeCN | 72.2±0.3% | 17.1 µM | 45.2 µM
5 | NCCCCNCC(=O)N(CC(=O)N(CC(=O)N(CCCCN)CC(=O)N(CC(=O)N(CC(=O)N(CCCCN)CC(=O)N(CC(=O)N(CC(=O)N(CCCCN)CC(=O)N(CC(=O)N(CC(N)=O)Cc1ccccc1)Cc1ccccc1)Cc1ccccc1)Cc1ccccc1)Cc1ccccc1)Cc1ccccc1)Cc1ccccc1)Cc1ccccc1 [peptoid 2, reference compound] (H-[Nlys][Nphe][Nphe][Nlys][Nphe][Nphe][Nlys][Nphe][Nphe][Nlys][Nphe][Nphe]-NH2) | 50.7 % MeCN | 17.7±1.1% | 20.4 µM | > 100.0 µM
6 | C[C@@H](c1ccccc1)N(CC(N)=O)C(=O)CN(C(=O)CN(CCCCN)C(=O)CN(CCc1c[nH]c2ccccc12)C(=O)CN(C(=O)CN(CCCCN)C(=O)CN(C(=O)CN(C(=O)CN(CCCCN)C(=O)CN(C(=O)CN(C(=O)CNCCCCN)[C@@H](C)c1ccccc1)[C@@H](C)c1ccccc1)[C@@H](C)c1ccccc1)[C@@H](C)c1ccccc1)[C@@H](C)c1ccccc1)[C@@H](C)c1ccccc1 [peptoid 8] | 54.5 % MeCN | 105.1±2.2% | 12.8 µM | 28.4 µM
7 | C[C@@H](c1ccccc1)N(CC(=O)N(CCCCN)CC(=O)N(CC(=O)N(CC(=O)N(CCCCN)CC(=O)N(CCCCN)CC(=O)N(CC(=O)N(CCCCN)CC(=O)N(CCc1c[nH]c2ccccc12)CC(=O)N(CCc1c[nH]c2ccccc12)CC(N)=O)Cc1ccccc1)[C@@H](C)c1ccccc1)[C@@H](C)c1ccccc1)C(=O)CN(C(=O)CNCCCCN)[C@@H](C)c1ccccc1 [peptoid 39] (H-[Nlys][Nspe][Nspe][Nlys][Nspe][Nspe][Nlys][Nlys][Nphe][Nlys][Gly(N(CH2)2(3-indolyl))][Gly(N(CH2)2(3-indolyl))]-NH2) | 47.8 % MeCN | 10.2±0.3% | 100 µM | > 100 µM
8 | C[C@@H](c1ccccc1)N(CC(=O)N(CCCCN)CC(=O)N(CC(=O)N(CC(=O)N(CCCCN)CC(=O)N(CCc1c[nH]c2ccccc12)CC(=O)N(CCc1c[nH]c2ccccc12)CC(N)=O)[C@@H](C)c1ccccc1)[C@@H](C)c1ccccc1)C(=O)CN(C(=O)CN(CCCCN)C(=O)CN(CCc1c[nH]c2ccccc12)C(=O)CN(CCc1c[nH]c2ccccc12)C(=O)CNCCCCN)[C@@H](C)c1ccccc1 [peptoid 18] (H-[Nlys][Gly(N(CH2)2(3-indolyl))][Gly(N(CH2)2(3-indolyl))][Nlys][Nspe][Nspe][Nlys][Nspe][Nspe][Nlys][Gly(N(CH2)2(3-indolyl))][Gly(N(CH2)2(3-indolyl))]-NH2) | 53.8 % MeCN | 103.5±4.3% | 14.3 µM | 37.8 µM

Now from value to compound, other results behind:

Row | HPLC elution [2] | SMILES | Hmax (100 µM) [1] | HC10 [1] | HC50 [1]
9 | 56.0 % MeCN | C[C@@H](c1ccccc1)N(CC(=O)N(CCCCN)CC(=O)N(CC(=O)N(CC(=O)N(CCCCN)CC(=O)N(CC(=O)N(CC(=O)N(CCCCN)CC(=O)N(CC(=O)N(CCc1c[nH]c2ccccc12)CC(N)=O)[C@@H](C)c1ccccc1)[C@@H](C)c1ccccc1)[C@@H](C)c1ccccc1)[C@@H](C)c1ccccc1)[C@@H](C)c1ccccc1)C(=O)CN(CCc1c[nH]c2ccccc12)C(=O)CNCCCCN [peptoid 17] (H-[Nlys][Gly(N(CH2)2(3-indolyl))][Nspe][Nlys][Nspe][Nspe][Nlys][Nspe][Nspe][Nlys][Nspe][Gly(N(CH2)2(3-indolyl))]-NH2) | 87.3±6.7% | 18.0 µM | 39.7 µM
10 | 55.9 % MeCN | C[C@@H](c1ccccc1)N(CC(N)=O)C(=O)CN(C(=O)CN(CCCCN)C(=O)CN(CCc1c[nH]c2ccccc12)C(=O)CN(CCc1c[nH]c2ccccc12)C(=O)CN(CCCCN)C(=O)CN(C(=O)CN(C(=O)CN(CCCCN)C(=O)CN(C(=O)CN(C(=O)CNCCCCN)[C@@H](C)c1ccccc1)[C@@H](C)c1ccccc1)[C@@H](C)c1ccccc1)[C@@H](C)c1ccccc1)[C@@H](C)c1ccccc1 [peptoid 12] | 87.4±2.4% | 29.1 µM | 65.2 µM
11 | 56.0 % MeCN | C[C@@H](c1ccccc1)N(CC(N)=O)C(=O)CN(C(=O)CN(CCCCN)C(=O)CN(C(=O)CN(C(=O)CN(CCCCN)C(=O)CN(CCc1c[nH]c2ccccc12)C(=O)CN(CCc1c[nH]c2ccccc12)C(=O)CN(CCCCN)C(=O)CN(C(=O)CN(C(=O)CNCCCCN)[C@@H](C)c1ccccc1)[C@@H](C)c1ccccc1)[C@@H](C)c1ccccc1)[C@@H](C)c1ccccc1)[C@@H](C)c1ccccc1 [peptoid 13] | 96.8±1.6% | 20.2 µM | 41.3 µM
12 | 58.6 % MeCN | C[C@@H](c1ccccc1)N(CC(=O)N(CCCCN)CC(=O)N(CC(=O)N(CC(=O)N(CCCCN)CC(=O)N(CC(=O)N(CC(=O)N(CCCCN)CC(=O)N(CC(=O)N(CC(=O)N(CCc1c[nH]c2ccccc12)CC(N)=O)[C@@H](C)c1ccccc1)[C@@H](C)c1ccccc1)[C@@H](C)c1ccccc1)[C@@H](C)c1ccccc1)[C@@H](C)c1ccccc1)[C@@H](C)c1ccccc1)C(=O)CN(C(=O)CN(CCCCN)C(=O)CNCCc1c[nH]c2ccccc12)[C@@H](C)c1ccccc1 [peptoid 5] (H-[Gly(N(CH2)2(3-indolyl))][Nlys][Nspe][Nspe][Nlys][Nspe][Nspe][Nlys][Nspe][Nspe][Nlys][Nspe][Nspe][Gly(N(CH2)2(3-indolyl))]-NH2) | 108.1±2.7% | < 6.3 µM | 15.3 µM
